# pIC50: −log10 of the molar value. Where two headings read alike, the source gives them in different places.
# Assays:
# [1] = tested on: cultured cortical neurons; assay: in vitro ischemia (sodium azide/glucose deprivation), fura-2 [Ca2+]i; format: cell-based, rat; settings: for pIC50: Langmuir-Hill fit, read-out: IC50 (half-maximal concentration), inhibition of ischemia-evoked increases in [Ca2+]i
# Method: The effects of sigma receptors on ischemia-induced changes in intracellular calcium concentrations were studied in cultured cortical neurons from embryonic (E18) rats. Dams were euthanatized by decapitation, uterus removed, and embryos dissected out and placed in isotonic buffer containing (in mM): 137 NaCl, 5 KCl, 0.2 NaH2PO4, 0.2 KH2PO4, 5.5 glucose, 6 sucrose (pH 7.4 with NaOH). Cortex were excised and minced, and tissue digested in isotonic buffer containing 0.25% trypsin/EDTA for 10 min at 37° C. and added to 3× volume of high glucose culture media (Dulbecco's Modified Eagle Media; Invitrogen, Inc., Carlsbad, Calif.), 10% (v/v) fetal calf serum, 100 U/ml penicillin and 0.1 mg/ml streptomycin. Cells were counted on a hemocytometer, plated (0.5×10^6 cells) on 18 mm coverslips coated with poly-l-lysine, and incubated at 37° C. under a 95% air, 5% CO2 atmosphere. After 24 hr the media was replaced with Neurobasal (Invitrogen) medium supplemented with B27 (Invitrogen) and 0.5 mM 1-glutamine to limit astrocyte proliferation in the cultures. Cells were used after 14-21 days in culture.
# Intracellular free-calcium was measured using the calcium sensitive dye, fura-2 as previously described (DeHaven and Cuevas, 2004). Cells plated on coverslips were incubated for 1 hour at room temperature in physiological saline solution (PSS) consisting of (in mM): 140 NaCl, 3 KCl, 2.5 CaCl2, 1.2 MgCl2, 7.7 glucose and 10 HEPES (pH to 7.2 with NaOH), which also contained 1 μM of the membrane permeable ester form of fura-2, acetoxymethylester (fura-2 AM) and 0.1% dimethyl sulfoxide (DMSO). The coverslips were then washed in PSS (fura-2 AM free) prior to the experiments being carried out. All solutions were applied via a rapid application system identical to that previously described (Cuevas and Berg, 1998).
# A DG-4 high-speed wavelength switcher (Sutter Instruments Co., Novato, Calif.) was used to apply alternating excitation light, and fluorescent emission was captured using a Sensicam digital CCD camera (Cooke Corporation, Auburn Hills, Mich.) and recorded with Slidebook 3.0 software (Intelligent Imaging Innovations, Denver, Colo.). Changes in [Ca^2+]i were calculated using the Slidebook 3 software (Intelligent Imaging Innovations) using methods described previously (DeHaven and Cuevas, 2004).
# In vitro ischemia was achieved using the sodium azide/glucose deprivation model.
# The control bath solution for all experiments was a physiological saline solution (PSS) containing (in mM) 140 NaCl, 1.2 MgCl2, 3 KCl, 2.5 CaCl2, 7.7 glucose and 10 HEPES, pH to 7.2 with NaOH. All drugs were applied in this solution unless otherwise noted. In vitro ischemia was induced by addition of the cytochrome oxidase inhibitor, NaN3 (4 mM), and removal of glucose from the PSS. For experiments in which multiple ischemic episodes were induced in a single cell, the order of drug application was alternatively reversed to compensate for any effects due to rundown, desensitization or ischemic preconditioning. For experiments with metaphit, cells were preincubated in 50 μM metaphit during the last 15 mm of fura-2 loading and immediately prior to experiments being conducted. The metaphit was washed off for 5 min in the bath using PSS.
# [2] = tested on: cultured cortical neurons; assay: spontaneous Ca2+ transients, fura-2 [Ca2+]i; format: cell-based, rat
# sigma-1 receptors = sigma-1 receptors (Homo sapiens, UniProt Q99720); settings: cited from earlier work
# Sequence of sigma-1 receptors (Q99720 whole entry): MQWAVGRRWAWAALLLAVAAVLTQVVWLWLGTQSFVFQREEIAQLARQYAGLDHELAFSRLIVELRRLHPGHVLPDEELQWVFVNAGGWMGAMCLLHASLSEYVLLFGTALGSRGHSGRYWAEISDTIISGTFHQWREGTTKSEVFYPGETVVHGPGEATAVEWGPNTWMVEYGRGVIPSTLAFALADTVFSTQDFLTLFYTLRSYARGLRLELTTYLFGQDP
# rat hippocampal slices = rat hippocampal slices (Thurgur and Church, 1998); read-out: value reported for inhibition of epileptiform activity; cited from earlier work
# glutamate receptors = settings: cited from earlier work
# ASIC channels = assay: low-pH (pH 6.0) evoked ASIC-mediated increases in [Ca2+]i; format: cell-based, rat; settings: 50 μM, pH 6.0, reversible
# sigma-2 receptors = sigma-2 receptors (Homo sapiens, UniProt Q5BJF2); settings: cited from earlier work
# Sequence of sigma-2 receptors (Q5BJF2 whole entry): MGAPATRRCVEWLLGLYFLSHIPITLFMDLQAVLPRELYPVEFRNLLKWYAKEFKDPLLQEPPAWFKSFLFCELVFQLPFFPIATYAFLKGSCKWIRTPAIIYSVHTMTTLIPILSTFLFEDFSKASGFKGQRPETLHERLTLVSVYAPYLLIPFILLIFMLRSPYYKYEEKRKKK
# voltage-gated Ca2+ = settings: rat intracardiac neurons; read-out: IC50 inhibition of voltage-gated Ca2+; cited from earlier work
# [3] = tested on: delayed outwardly rectifying K+ channels; settings: frog pituitary melanotrophs; read-out: IC50 inhibition of delayed outwardly rectifying K+ channels; cited from earlier work
# voltage-gated K channels = settings: rat intracardiac neurons; read-out: IC50 inhibition of voltage-gated K channels; cited from earlier work
# [4] = tested on: transient ischemia model (MCAO); settings: intravenous, 1-2 hr following reperfusion; cited from earlier work
molecule,measurement,setting,value
CCN(CC)CCOCCOC(=O)C1(c2ccccc2)CCCC1 [carbetapentane],pIC50,[1],4.89
same,pIC50,"[1]; Rattus norvegicus, Cortical neurone",4.88
same,effect on spontaneous increases in [Ca2+]i (number of events),[2]; 100 μM,significant decrease
same,affinity of sigma-1 receptors relative to sigma-2 receptors,sigma-1 receptors; sigma-1 over sigma-2,> 30 fold
same,pIC50,rat hippocampal slices,4.42
same,inhibition of calcium elevations evoked by glutamate application,glutamate receptors; 100 μM,not
"C=CCN1CCC2(C)c3cc(O)ccc3CC1C2C (single isomer, unassigned; (+)) [(+)SKFIOO47]",inhibition of calcium elevations evoked by glutamate application,glutamate receptors; 10 μM,inhibit
"CN(C)CCN(C)CCc1ccc(Cl)c(Cl)c1 [BD-1047, N-[2-(3,4-dichlorophenyl)ethyl]-N-methyl-2-(dimethylamino)ethylamine]",reduction of the effects of DTG on ischemia-evoked calcium transients,"[1]; 1 pM BD-1047, with DTG",15%
same,reduction of the effects of DTG on ischemia-evoked calcium transients,"[1]; 10 pM BD-1047, with DTG",55%
ibogaine,effect on ischemia-induced elevations in [Ca2+]i,[1]; 1-100 μM,failed to inhibit
same,effect on number of spontaneous calcium events,[2]; 50 μM,significantly decreased
same,decrease of low-pH evoked increases in [Ca2+]i,ASIC channels,70%
same,affinity of sigma-2 receptors relative to (+)-pentazocine,sigma-2 receptors,~6 fold
same,affinity of sigma-2 receptors relative to sigma-1 receptors,sigma-2 receptors; sigma-2 over sigma-1,> 40 fold
same,pIC50,voltage-gated Ca2+,4.51
O=C(OCCN1CCOCC1)C1(c2ccccc2)CCCCC1 [PRE-084],decrease of ischemia-induced elevations in [Ca2+]i,[1]; 10 μM,26±4%
same,decrease of ischemia-induced elevations in [Ca2+]i,[1]; 100 μM,58±1%
C/C=C(/C)C(=O)O[C@H]1C(C)=C2[C@H]([C@@H]1OC(=O)CCCCCCC)[C@@](C)(OC(C)=O)C[C@H](OC(=O)CCC)[C@@]1(O)[C@H]2OC(=O)[C@@]1(C)O [thapsigargin],effect on ischemia-induced peak elevation in [Ca2+]i,"[1]; 10 μM, thapsigargin by preincubation",decreased the peak elevation
"NC1=N[C@H](O)[C@H]2[C@H]3O[C@]4(O)O[C@@H]([C@@H](O)[C@@]2(N1)[C@@H]4O)[C@]3(O)CO [TTX, tetrodotoxin]",decrease of ischemia-evoked increase in [Ca2+]i,[1],65±4%
metaphit,ischemia-induced elevation in [Ca2+]i,"[1]; preincubation in 50 μM metaphit, no DTG",495 ± 68 nM
O=C(CCCN1CCC(O)(c2ccc(Cl)cc2)CC1)c1ccc(F)cc1 [haloperidol],inhibition of calcium elevations evoked by glutamate application,glutamate receptors; 10 μM,inhibit
"CC(C)=CCN1CCC2(C)c3cc(O)ccc3CC1C2C (single isomer, unassigned; (+)) [(+)-pentazocine]",decrease of ischemia-induced elevations in [Ca2+]i,[1]; 10 μM,37±5%
same,decrease of ischemia-induced elevations in [Ca2+]i,"[1]; 10 μM, listed as (+) pentazocine",~60%
same,decrease of ischemia-induced elevations in [Ca2+]i,[1]; 100 μM,49±4%
same,decrease of low-pH evoked increases in [Ca2+]i,ASIC channels,50%
same,affinity of sigma-1 receptors relative to ibogaine,sigma-1 receptors,~2000 fold
same,pIC50,[3],4.43
same,pIC50,voltage-gated K channels,4.38
ryanodine,effect on ischemia-induced peak elevation in [Ca2+]i,[1],did not significantly alter
"c1ccc(CCCCN2CCC(c3ccccc3)CC2)cc1 [PPBP, 4-phenyl-1-(4-phenylbutyl)piperidine]",decrease in neurodegeneration in brain sections,[4],40%
